From patent US7998983B2, “Substituted isoxazoles as fungicides” (Syngenta Limited, priority 2004, dated 2011)

What was measured:
[1] = tested on: Sclerotinia homoeocarpa (common name: dollar spot); test: Turf trial, dollar spot on creeping bentgrass; assay type: in vivo; settings: creeping bentgrass plots; Compound 4 as 25% wetable powder at 2.2, 4.4, 8.8 g a.i. per 1000 square feet; mean disease <3.0% acceptable
Description: Penncross during the spring.

[2] = tested on: leaf rust (Puccinia recondita: PUCCRT); test: Cereal field trial, leaf rust on wheat; assay type: in vivo; settings: winter wheat field trial; 9.5% emulsifiable concentrate; 140, 280 and 421 g a.i./ha; low natural incidence
Description: (§1) A field trial of Compound 4 was conducted on soft red winter wheat cultivar Sisson. Very dry weather gave rise to a low natural incidence of leaf rust (Puccinia recondita: PUCCRT) late in the trial. Compound 4 was applied as a 9.5% active ingredient (weight/weight) emulsifiable concentrate of the following formula (each weight/weight): 9.5% Compound 4, 9.5% m-Pyrol, 65% Surfadone LP-100, 6% Surfadone LP-300, 5% Toximul 3463F, and 5% Toximul 3464F. Rates of Compound 4 application were as follows (grams active ingredient per hectare: g a.i./ha): 140, 280 and 421.

[3] = tested on: soft red winter wheat cultivar Sisson; test: Cereal field trial, yield; assay type: in vivo; settings: highest rate of Compound 4 (421 g a.i./ha)
Description: as §1

[4] = tested on: creeping bentgrass cv. Penncross; test: Turf trial, turfgrass quality and phytotoxicity; settings: creeping bentgrass plots inoculated with S. homoeocarpa; ratings >6.0 acceptable
Description: A fungicide trial was conducted on a 15-yr-old sward of creeping bentgrass cv. Penncross during the spring. The turfgrass was maintained using cultural practices similar to those used in maintenance of bentgrass golf greens in the southern United States. Treatments were arranged as plots (0.5×1.0 m) in a randomized complete block design with four replications. […] All other fungicides were applied according to their labels (Banner MAXX 1.3ME and Insignia 20WG). The turfgrass was inoculated with autoclaved tall fescue seed infested with Sclerotinia homoeocarpa (common name: dollar spot) six hours after application of the initial preventive treatments. The plots received approximately 0.24 inches of irrigation water daily at 1700 hour to ensure nightly foliar wetness for infection. The Horsfall-Barratt rating scale was used to visually estimate disease severity at approximately 7-day intervals from the initial application date. Turfgrass quality was assessed using a 0-9 scale where 0=a necrotic, thin foliar canopy and 9=a dark green, dense foliar canopy. Disease and quality values were subjected to analysis of variance and means were statistically separated using the Scott-Knott cluster analysis procedure.

For `OC(c1cccnc1)c1c(-c2ccc(Cl)cc2Cl)noc1-c1cccc(Cl)c1` (stereo not shown) [Compound 4, 5-(3-Chlorophenyl)-3-(2,4-dichlorophenyl)-4-[(3-pyridyl)hydroxymethyl]-isoxazole], the “Dollar spot disease severity / control (Horsfall-Barratt rating)” value [1] was “effective control on dollar spot during most of the trial period”, the “Control of leaf rust incidence” value [2] was “good control of the rust incidence” and the Yield enhancement [3] was “Yield enhancement was observed”. The “Turfgrass quality (0-9 scale)” value [4] was “Highest quality ratings”.
